Assay [1] has as its system Mus musculus. Description: Inhibition of anti-CD3 antibody-induced IL4 production in Balb/c mouse dosed intravenously 5 mins before anti-CD3 antibody injection and measured 2 hrs post-challenge by ELISA. It is filed as functional, organism-based. In general terms: An ELISA detects its analyte on a solid surface through an enzyme-linked reagent.
Assay [2] relates to Mus musculus. Description: Inhibition of anti-CD3 antibody-induced IFNgamma production in Balb/c mouse dosed intravenously 5 mins before anti-CD3 antibody injection and measured 2 hrs post-challenge by ELISA. The class given is functional, organism-based.
Assay [3] has as its system Mus musculus. Put plainly: Inhibition of anti-CD3 antibody-induced IL2 production in Balb/c mouse dosed intravenously 5 mins before anti-CD3 antibody injection and measured 2 hrs post-challenge by ELISA. The class given is functional, organism-based.
Assay [4] addresses T1, Dual specificity mitogen-activated protein kinase kinase 7 (Homo sapiens, UniProt O14733).
T1 sequence (O14733 whole entry): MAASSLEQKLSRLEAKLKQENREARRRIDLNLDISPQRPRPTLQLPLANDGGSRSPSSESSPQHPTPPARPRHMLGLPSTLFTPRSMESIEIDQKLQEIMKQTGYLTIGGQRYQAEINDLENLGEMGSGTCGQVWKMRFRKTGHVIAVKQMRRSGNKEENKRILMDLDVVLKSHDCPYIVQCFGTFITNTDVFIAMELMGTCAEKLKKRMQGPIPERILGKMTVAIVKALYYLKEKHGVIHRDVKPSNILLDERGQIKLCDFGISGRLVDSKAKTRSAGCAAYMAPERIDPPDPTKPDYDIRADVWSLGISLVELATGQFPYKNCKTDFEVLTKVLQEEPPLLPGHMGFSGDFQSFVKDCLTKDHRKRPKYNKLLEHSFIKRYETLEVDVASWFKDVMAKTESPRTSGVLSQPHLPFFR
Put plainly: Inhibition of GST-tagged human MKK7 expressed in Escherichia coli (BL21(DE3) pLysS) co-expressing human MEKK catalytic domain using biotinylated and GST-tagged rat GST-KN-SAPKalpha substrate incubated for 1 hr by time-resolved fluorescence based assay.

This note sets out measurements from ChEMBL document CHEMBL3714742, “Pyrimido (4,5-b) indole derivatives” (2003).

SMILES strings stand for the structures. The source made the active and inactive calls. The rule behind the calls is not given here.

On to `CC(C)N(C)c1nc(N)nc2[nH]c3ccc(O)cc3c12`, for which the inhibition entry with Mus musculus [1], in the assay with Mus musculus [2] and in the assay with Mus musculus [3] was “Active” in each case. Besides, the IC50 (commonly the concentration needed to halve the response being measured) in assay [4] was under 1000 nM.
In the case of `Nc1nc(NCCO)c2c(n1)[nH]c1ccc(O)cc12`, the inhibition entry in the assay on Mus musculus [1], with Mus musculus [2] and with Mus musculus [3] was “Active” each time. This compound also had a concentration for half-maximal inhibition (IC50) in assay [4] of under 1000 nM.
For `CCN(CC)c1nc(C)nc2[nH]c3ccc(O)cc3c12`, the inhibition result in the assay with Mus musculus [1], in the assay with Mus musculus [2] and with Mus musculus [3] was “Active” in each case. In assay [4], this compound yielded an IC50 of 1000 nM.
On to `Nc1nc(N2CCC(Cc3ccccc3)CC2)c2c(n1)[nH]c1ccc(O)cc12`, for which the inhibition result in the assay with Mus musculus [1], in the assay with Mus musculus [2] and in the assay with Mus musculus [3] was “Active” each time. This compound came in with an IC50 in assay [4] of 1000 nM.
Take `CC1CCN(c2ncnc3[nH]c4ccc(O)cc4c23)CC1`: the inhibition result in the assay with Mus musculus [1], in the assay on Mus musculus [2] and with Mus musculus [3] was “Active” in each case. In assay [4], this compound returned an IC50 of under 1000 nM.
Consider `OCC1CCCCN1c1ncnc2[nH]c3ccc(O)cc3c12` (stereo unspecified), for which the inhibition entry in the assay on Mus musculus [1], with Mus musculus [2] and with Mus musculus [3] was “Active” in each case. In assay [4], this compound returned an IC50 of under 1000 nM.
On to `Nc1nc(NCc2ccccc2)c2c(n1)[nH]c1ccc(O)cc12`, for which the inhibition result in the assay with Mus musculus [1], in the assay on Mus musculus [2] and with Mus musculus [3] was “Active” in each case. The compound also registered a half-maximal inhibitory concentration (IC50) in assay [4] of under 1000 nM.
As for `CC(O)CNc1ncnc2[nH]c3ccc(O)cc3c12` (stereo unspecified), the inhibition result in the assay with Mus musculus [1], in the assay on Mus musculus [2] and in the assay on Mus musculus [3] was “Active” each time. Further, the 50% inhibitory concentration (IC50) in assay [4] was under 1000 nM.
As to `NCc1ccc2[nH]c3nc(N)nc(N4CCCCC4)c3c2c1`, the inhibition entry in the assay with Mus musculus [1], in the assay with Mus musculus [2] and in the assay with Mus musculus [3] was “Active” throughout. In addition, in assay [4], the concentration for half-maximal inhibition (IC50) is 1000 nM.
`Nc1nc(N2CCCCC2)c2c(n1)[nH]c1ccc(C(=O)O)cc12`: the inhibition entry with Mus musculus [1], in the assay with Mus musculus [2] and in the assay with Mus musculus [3] was “Active” throughout. In assay [4], the IC50 is under 1000 nM.
Turning to `CN(C)c1ncnc2[nH]c3ccc(O)cc3c12`, the inhibition result in the assay on Mus musculus [1], in the assay with Mus musculus [2] and in the assay with Mus musculus [3] was “Active” each time. The half-inhibitory concentration (IC50) in assay [4] is under 1000 nM.
For the compound `CC1CCCN(c2nc(N)nc3[nH]c4ccc(O)cc4c23)C1` (stereo unspecified), the inhibition entry in the assay with Mus musculus [1], with Mus musculus [2] and in the assay on Mus musculus [3] was “Active” each time. Further, the half-maximal inhibitory concentration (IC50) in assay [4] was under 1000 nM.
On to `CC1CCN(c2nc(N)nc3[nH]c4ccc(O)cc4c23)CC1`, for which the inhibition result in the assay on Mus musculus [1], with Mus musculus [2] and with Mus musculus [3] was “Active” in each case. In assay [4], this compound gave an IC50 of under 1000 nM.
Regarding `CC1CCCN(c2ncnc3[nH]c4ccc(C(N)=O)cc4c23)C1` (stereo unspecified), the inhibition result with Mus musculus [1], with Mus musculus [2] and in the assay with Mus musculus [3] was “Active” throughout. The compound also yielded an IC50 in assay [4] of under 1000 nM.
Consider `CC1CCN(c2ncnc3[nH]c4ccc(C(N)=O)cc4c23)CC1`, for which the inhibition entry in the assay with Mus musculus [1], in the assay with Mus musculus [2] and with Mus musculus [3] was “Active” throughout. In assay [4], the half-maximal inhibitory concentration (IC50) was under 1000 nM.
As for `C[C@@H](CO)Nc1ncnc2[nH]c3ccc(O)cc3c12`, the inhibition entry in the assay with Mus musculus [1], with Mus musculus [2] and in the assay on Mus musculus [3] was “Active” throughout. The IC50 in assay [4] is under 1000 nM.
Take `NC(=O)C1CCCN(c2ncnc3[nH]c4ccc(O)cc4c23)C1` (stereo unspecified): the inhibition result with Mus musculus [1], with Mus musculus [2] and in the assay on Mus musculus [3] was “Active” each time. Moreover, the IC50 in assay [4] is under 1000 nM.
`Nc1nc(N2CCC(Br)CC2)c2c(n1)[nH]c1ccc(O)cc12`: the inhibition result in the assay on Mus musculus [1], in the assay on Mus musculus [2] and in the assay on Mus musculus [3] was “Active” each time. The same compound came in with an IC50 in assay [4] of under 1000 nM.
With `Cc1nc(N2CCCCC2CO)c2c(n1)[nH]c1ccc(O)cc12` (stereo unspecified), the inhibition result in the assay with Mus musculus [1], with Mus musculus [2] and in the assay with Mus musculus [3] was “Active” throughout. In assay [4], the half-maximal inhibitory concentration (IC50) worked out at 1000 nM.
With `CN(CCO)c1ncnc2[nH]c3ccc(O)cc3c12`, the inhibition entry with Mus musculus [1], in the assay on Mus musculus [2] and in the assay with Mus musculus [3] was “Active” each time. The same compound showed a half-maximal inhibitory concentration (IC50) in assay [4] of under 1000 nM.
Consider `OC[C@@H]1CCCN1c1ncnc2[nH]c3ccc(O)cc3c12`, for which the inhibition result with Mus musculus [1], in the assay with Mus musculus [2] and in the assay on Mus musculus [3] was “Active” each time. For the same compound, the IC50 in assay [4] was under 1000 nM.
Regarding `Oc1ccc2[nH]c3ncnc(N4CCC[C@@H](O)C4)c3c2c1`, the inhibition result with Mus musculus [1], in the assay on Mus musculus [2] and with Mus musculus [3] was “Active” throughout. Further, the IC50 in assay [4] was under 1000 nM.
For the compound `Cc1nc(N2CCCC2)c2c(n1)[nH]c1ccc(O)cc12`, the inhibition entry in the assay on Mus musculus [1], in the assay on Mus musculus [2] and with Mus musculus [3] was “Active” throughout. In assay [4], the IC50 turned out to be 1000 nM.
For `Nc1nc(N2CCC(N3CCCC3)CC2)c2c(n1)[nH]c1ccc(O)cc12`, the inhibition entry in the assay with Mus musculus [1], with Mus musculus [2] and in the assay with Mus musculus [3] was “Active” throughout. The IC50 in assay [4] was under 1000 nM.
As for `O=C(O)CCCCCN1CCN(c2ncnc3[nH]c4ccc(O)cc4c23)CC1`, the inhibition result in the assay with Mus musculus [1], with Mus musculus [2] and in the assay with Mus musculus [3] was “Active” in each case. Further, the IC50 in assay [4] came out at 1000 nM.
With `Nc1nc(N2CCC3(CC2)OCCO3)c2c(n1)[nH]c1ccc(O)cc12`, the inhibition entry in the assay on Mus musculus [1], with Mus musculus [2] and in the assay with Mus musculus [3] was “Active” each time. The IC50 in assay [4] is under 1000 nM.
Turning to `COC1CCN(c2ncnc3[nH]c4ccc(O)cc4c23)CC1`, the inhibition entry in the assay with Mus musculus [1], with Mus musculus [2] and in the assay with Mus musculus [3] was “Active” throughout. For the same compound, in assay [4], the IC50 was under 1000 nM.
`OCCC1CCN(c2ncnc3[nH]c4ccc(O)cc4c23)CC1`: the inhibition result in the assay on Mus musculus [1], with Mus musculus [2] and in the assay on Mus musculus [3] was “Active” in each case. The compound further showed an IC50 in assay [4] of under 1000 nM.
For the compound `O=CN1CCN(c2ncnc3[nH]c4ccc(O)cc4c23)CC1`, the inhibition result in the assay on Mus musculus [1], in the assay with Mus musculus [2] and in the assay with Mus musculus [3] was “Active” in each case. The compound also yielded an IC50 in assay [4] of under 1000 nM.
With `O=C1CCN(c2ncnc3[nH]c4ccc(O)cc4c23)CC1`, the inhibition result in the assay with Mus musculus [1], in the assay on Mus musculus [2] and in the assay with Mus musculus [3] was “Active” in each case. This compound registered an IC50 in assay [4] of under 1000 nM.
With `C[C@H](CO)Nc1ncnc2[nH]c3ccc(O)cc3c12`, the inhibition result in the assay with Mus musculus [1], in the assay with Mus musculus [2] and with Mus musculus [3] was “Active” throughout. The same compound displayed an IC50 in assay [4] of under 1000 nM.
For the compound `CN(c1nc(N)nc2[nH]c3ccc(O)cc3c12)C1CCCCC1`, the inhibition entry in the assay with Mus musculus [1], with Mus musculus [2] and with Mus musculus [3] was “Active” each time. Further, the IC50 in assay [4] is under 1000 nM.
In the case of `NC(=O)c1ccc2[nH]c3ncnc(N4CCC(O)CC4)c3c2c1`, the inhibition entry in the assay on Mus musculus [1], in the assay on Mus musculus [2] and with Mus musculus [3] was “Active” in each case. This compound yielded a 50% inhibitory concentration (IC50) in assay [4] of under 1000 nM.
With `CC1CCCCN1c1ncnc2[nH]c3ccc(O)cc3c12` (stereo unspecified), the inhibition result with Mus musculus [1], with Mus musculus [2] and in the assay with Mus musculus [3] was “Active” throughout. In assay [4], the IC50 was under 1000 nM.
On to `Nc1nc(N(Cc2ccccc2)Cc2ccccc2)c2c(n1)[nH]c1ccc(O)cc12`, for which the inhibition result in the assay with Mus musculus [1], with Mus musculus [2] and with Mus musculus [3] was “Active” in each case. Moreover, in assay [4], the IC50 was over 10000 nM.
With `NC(=O)c1ccc2[nH]c3ncnc(NCCO)c3c2c1`, the inhibition result in the assay with Mus musculus [1], in the assay with Mus musculus [2] and in the assay on Mus musculus [3] was “Active” each time. The same compound came in with an IC50 in assay [4] of under 1000 nM.
Regarding `Oc1ccc2[nH]c3ncnc(N4CCC(O)CC4)c3c2c1`, the inhibition entry in the assay on Mus musculus [1], in the assay with Mus musculus [2] and with Mus musculus [3] was “Active” in each case. This compound returned a 50% inhibitory concentration (IC50) in assay [4] of under 1000 nM.
Regarding `COc1cc2[nH]c3nc(N)nc(N4CCOCC4)c3c2cc1OC`, the inhibition result in the assay on Mus musculus [1], in the assay with Mus musculus [2] and with Mus musculus [3] was “Active” throughout. In assay [4], the IC50 is 1000 nM.
As to `COC(=O)c1ccc2[nH]c3nc(C)nc(N4CCCCC4)c3c2c1`, the inhibition result with Mus musculus [1], with Mus musculus [2] and with Mus musculus [3] was “Active” throughout. Further, the IC50 in assay [4] was under 1000 nM.
